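Results reflect a 48-hour exposure of cells in 96-well plates to compound at five concentrations. At the GI50, growth is halved.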 The source made the active and inactive calls. Rule as the data show it: active = GI50 up to about 1.1 µM and inactive = higher.
Tests used:
Test in all cases: NCI tumour cell line growth inhibition, 48 h
786-0 = tested on: 786-0
A549 = tested on: A549
BT-549 = tested on: BT-549
CAKI-1 = tested on: CAKI-1
COLO 205 = tested on: COLO 205
EKVX = tested on: EKVX
Hs-578T = tested on: Hs-578T
K562 = tested on: K562
MDA-MB-231 = tested on: MDA-MB-231
MDA-MB-435 = tested on: MDA-MB-435
Malme-3M = tested on: Malme-3M
OVCAR-4 = tested on: OVCAR-4
OVCAR-5 = tested on: OVCAR-5
PC-3 = tested on: PC-3
SF-295 = tested on: SF-295
SNB-19 = tested on: SNB-19
SNB-75 = tested on: SNB-75
SW-620 = tested on: SW-620
UACC-62 = tested on: UACC-62
UO-31 = tested on: UO-31

Row | SMILES | GI50 (786-0) | GI50 (A549) | GI50 (BT-549) | GI50 (CAKI-1) | GI50 (COLO 205) | GI50 (EKVX) | GI50 (Hs-578T) | GI50 (K562) | GI50 (MDA-MB-231) | GI50 (MDA-MB-435) | GI50 (Malme-3M) | GI50 (OVCAR-4) | GI50 (OVCAR-5) | GI50 (PC-3) | GI50 (SF-295) | GI50 (SNB-19) | GI50 (SNB-75) | GI50 (SW-620) | GI50 (UACC-62) | GI50 (UO-31)
1 | O=C1C(CN2CCCC2)CCCC1CN1CCCC1 (stereo not drawn) | 1.07 µM (active) | 19.8 µM (inactive) | 1.87 µM (inactive) | 1.64 µM (inactive) | 1.53 µM (inactive) | 3.52 µM (inactive) | 28 µM (inactive) | 0.206 µM (active) | 15.8 µM (inactive) | 2.76 µM (inactive) | 0.611 µM (active) | 5.75 µM (inactive) | 5.98 µM (inactive) | 18.2 µM (inactive) | > 38.7 µM (inactive) | > 100 µM (inactive) | 19.7 µM (inactive) | 0.129 µM (active) | 16.9 µM (inactive) | 0.791 µM (active)
2 | Clc1ccc(OCc2nnc(CCCCCCCCc3nnc(COc4ccc(Cl)cc4)n3Nc3ccccc3)n2Nc2ccccc2)cc1 | 15.3 µM (inactive) | 1.19 µM (inactive) | 11.6 µM (inactive) | 0.531 µM (active) | 0.318 µM (active) | 12.9 µM (inactive) | 22.9 µM (inactive) | 0.343 µM (active) | 26.2 µM (inactive) | 2.22 µM (inactive) | 12.5 µM (inactive) | 15.7 µM (inactive) | 2.74 µM (inactive) | 1.44 µM (inactive) | 0.145 µM (active) | 12.9 µM (inactive) | 52.4 µM (inactive) | 16.9 µM (inactive) | 0.895 µM (active) | 2.04 µM (inactive)
3 | COc1ccc(/C=C/C(=O)c2cccc(C(=O)/C=C/c3ccc(OC)c(OC)c3)n2)cc1OC | 11.9 µM (inactive) | > 100 µM (inactive) | 6.15 µM (inactive) | > 57.9 µM (inactive) | > 68.2 µM (inactive) | > 95.9 µM (inactive) | > 48.2 µM (inactive) | 3.69 µM (inactive) | 25.4 µM (inactive) | > 50.9 µM (inactive) | 24.5 µM (inactive) | > 100 µM (inactive) | 29.6 µM (inactive) | 29 µM (inactive) | > 73.8 µM (inactive) | 27 µM (inactive) | > 100 µM (inactive) | 3.53 µM (inactive) | 21.7 µM (inactive) | 16.4 µM (inactive)
4 | CC1(C)OC(=S)N(c2ccccc2)C12C=Cc1cc3ccccc3cc1O2 (stereo not drawn) | > 100 µM (inactive) | > 100 µM (inactive) | > 100 µM (inactive) | > 100 µM (inactive) | > 100 µM (inactive) | > 100 µM (inactive) | > 100 µM (inactive) | 41.3 µM (inactive) | > 100 µM (inactive) | > 100 µM (inactive) | – | > 100 µM (inactive) | > 100 µM (inactive) | 44.2 µM (inactive) | > 100 µM (inactive) | > 100 µM (inactive) | > 100 µM (inactive) | > 100 µM (inactive) | > 100 µM (inactive) | > 100 µM (inactive)
5 | Cc1csc(NC23CC4CC(CC(C4)C2)C3)[n+]1C(P(=O)([O-])O)P(=O)(O)O (stereo not drawn) | > 100 µM (inactive) | > 100 µM (inactive) | > 100 µM (inactive) | > 100 µM (inactive) | > 100 µM (inactive) | > 100 µM (inactive) | > 100 µM (inactive) | > 100 µM (inactive) | > 100 µM (inactive) | > 100 µM (inactive) | > 100 µM (inactive) | – | > 100 µM (inactive) | > 100 µM (inactive) | > 100 µM (inactive) | > 100 µM (inactive) | > 100 µM (inactive) | > 100 µM (inactive) | > 100 µM (inactive) | > 100 µM (inactive)
6 | O=C1C[C@@H](Sc2ccccc2)C2(OCCO2)[C@H]2ON3CCC[C@@H]3[C@@H]12 | 2.07 µM (inactive) | 10.3 µM (inactive) | 6.53 µM (inactive) | 4.42 µM (inactive) | 2.48 µM (inactive) | – | 2.77 µM (inactive) | 2.56 µM (inactive) | 3.06 µM (inactive) | 2.58 µM (inactive) | 1.82 µM (inactive) | 5 µM (inactive) | – | 4.55 µM (inactive) | 11.4 µM (inactive) | 14.8 µM (inactive) | – | 2.14 µM (inactive) | 10.9 µM (inactive) | 1.94 µM (inactive)
7 | Nc1ccc(Nc2c3ccccc3nc3ccccc23)cc1 | 3.1 µM (inactive) | 3.15 µM (inactive) | > 10 µM (inactive) | 2.91 µM (inactive) | 3.78 µM (inactive) | 8.51 µM (inactive) | 7.55 µM (inactive) | 4.86 µM (inactive) | 5.81 µM (inactive) | 5.51 µM (inactive) | 2.98 µM (inactive) | 3.83 µM (inactive) | 5.52 µM (inactive) | 4.75 µM (inactive) | 2.62 µM (inactive) | 4.99 µM (inactive) | – | 2.26 µM (inactive) | 1.77 µM (inactive) | –
